What is called inhibition is the share of the control response that was lost under treatment. A low value points to little suppression.

The text below walks through data of patent US5036072A, “Antiviral agent” (Ishihara Sangyo Kaisha Ltd., priority 1989, dated 1991).

The test system of test [1] is helpes simplex virus (1-type, KOS strain). Description: plaque-reduction evaluation method in Verocells. The format is cell-based. To be noted: drug added one hour after infection, counted three days later. How it is done:
The antiviral activities were evaluated by a plaque-reduction evaluation method. Verocells were inoculated to a plastic Petri dish and then proliferated until they formed a monolayer. To each Petri dish, a predetermined number of plaque-forming units (about 100 to 500) of helpes simplex virus (1-type, KOS strain) were infected. Compound 3 was dissolved in 2% of bovine fetus serum inactivated by heating and adjusted to a predetermined concentration. One hour after the infection, the drug solution was added to the cultivation Petri dish (8 ml/Petri dish). Three days later, the cultivation Petri dish was fixed by formalin and dyed with Crystal Violet, whereupon the number of plaques was counted.

The subject of test [2] is reverse transcriptase derived from bird's myeloblastosis virus. Kind of test: inhibition of the reverse transcriptase activities. Type of test: biochemical. As to conditions: 37° C. for 60 minutes, [3H]-TTP incorporation. How it is done: Now, the effects of the antiviral agent of the present invention for inhibition of the reverse transcriptase activities will be shown.
The test solution comprised magnesium chloride (5 mM), DTT (5 mM), sodium chloride (60 mM), [^3 H]-TTP (0.2 mM), poly(λA) (10 μg/ml), Oligo (dT) (0.04 U/ml), reverse transcriptase derived from bird's myeloblastosis virus (3 U/ml) and Tris hydrochloric acid (pH 8.0). Compound 3 was dissolved in cyclodextrin to obtain a solution having a concentration of 5 mg/ml, which was then diluted with water to a predetermined concentration for use.
Then, 50 μl of the test solution and 50 μl of the sample solution were mixed, and the mixture was incubated at 37° C. for 60 minutes. Then, 50 μl of the incubated solution was sampled and soaked into a DEA filter paper. Then, this filter paper was washed with a 5% sodium monohydrogen phosphate solution and then with water and ethanol, followed by drying. The radioactivity contained in the captured fraction was measured by means of a scintillation counter. Then, the inhibition rate (%) of the sample Compound 3 was calculated from the radioactivity of the test sample group and that of the control group.

The structures appear in SMILES notation.

With `O=C(NC(=O)c1ccccc1[N+](=O)[O-])Nc1ccc(Oc2ncc(Br)cn2)c(Cl)c1` [Compound 3], the Number of plaques in test [1] (1 μg/ml) was 264.5; in test [1] (2.5 μg/ml), 122.0; in test [1] (5 μg/ml), 27.5. Moreover, in test [1] (1 μg/ml), the inhibition at 1 µg/mL worked out at 45.1%. In test [1] (2.5 μg/ml), this compound yielded an inhibition at 2.5 µg/mL of 74.7%. This compound also gave an inhibition at 5 µg/mL in test [1] (5 μg/ml) of 94.3%. Also, the “Inhibition rate (%)” value in test [2] (1.25 μg/ml) turned out to be 6%; in test [2] (2.5 μg/ml), 11%; in test [2] (5 μg/ml), 34%; in test [2] (10 μg/ml), 57%.
